# Source: patent publication US6452005B1, “JAK-3 inhibitors for treating allergic disorders” (Parker Hughes Institute, priority 1999, dated 2002)
# Key:
# recombinant JAK1 = molecular target: T1, recombinant JAK1 (Homo sapiens, UniProt P23458); experiment: Immune complex kinase assay, recombinant JAK1; assay type: biochemical; details: FIG. 6C & D
# T1 construct: made in house; host or cells: Sf21 insect cells, baculovirus
# Source text: Immune Complex Kinase Assays.
# BALB/c mice = experiment: Toxicity studies in mice; assay type: in vivo
# Experimental: Toxicity Studies in Mice. […] Female BALB/c mice were used and monitored daily for lethargy, cleanliness and morbidity. At the time of death, necropsies were performed and the toxic effects of WHI-P131 administration were assessed. For histopathologic studies, tissues were fixed in 10% neutral buffered formalin, dehydrated, and embedded in paraffin by routine methods. Glass slides with affixed 6 micron tissue sections were prepared and stained with Hemotoxylin and Eosin (H&E). Female BALB/c mice were administered an i.p. bolus injection of WHI-P131 in 0.2 ml PBS supplemented with 10% DMSO, or 0.2 ml PBS supplemented with 10% DMSO alone (control mice). No sedation or anesthesia was used throughout the treatment period. Mice were monitored daily for mortality for determination of the day 30 LD50 values. Mice surviving until the end of the 30 days monitoring were sacrificed and the tissues were immediately collected from randomly selected mice, and preserved in 10% neutral buffered formalin. Standard tissues collected for histologic evaluation included: bone, bone marrow, brain, cecum, heart, kidney, large intestine, liver, lung, lymph node, ovary, pancreas, skeletal muscle, skin, small intestine, spleen, stomach, thymus, thyroid gland, urinary bladder, and uterus (as available).
# RBL-2H3 mast cells = experiment: IgE/antigen-induced degranulation and mediator release; assay type: cell-based, rat; details: 1 h preincubation, DNP-BSA challenge; at ≧30 μM
# Source text: Vehicle treated control RBL-2H3 cells released 45.1±3.1% of their hexosaminidase contents after DNP-BSA challenge. […] Vehicle treated control cells released 11.3±1.3 pg LTC4, and 160±33.0 pg TNFα/10^6 mast cells. The results on LTC4 and TNFα release are expressed as percent of maximum control release from vehicle treated control mast cells. The data points represent the mean±SEM values obtained from 3-6 independent experiments. […] *P<0.05 and **P<0.0001 compared to control as determined by Student's t test.
# Supernatants were removed and saved.
# [1] = tested on: JAK1/JAK2-dependent STAT activation; experiment: EMSA, IL-3 triggered STAT activation in 32Dc11/IL2Rβ cells; assay type: cell-based; details: 10 μg/ml
# Experimental: Electrophoretic Mobility Shift Assays (EMSAs). EMSAs were performed to examine the effects of dimethoxyquinazoline compounds on cytokine-induced STAT activation (Goodman et. al., 1998). […] Cells were collected after 15 minutes and resuspended in lysis buffer (100 mM Tris-HCl pH 8.0, 0.5% NP-40, 10% glycerol, […], 0.1 mM NaVO3, 50 mM NaF, 150 mM NaCl, 1 mM DTT, 3 μg/ml Aprotinin, 2 μg/ml Pepstatin A, 1 μg/ml Leupeptin and 0.2 mM PMSF). Lysates were precleared by centrifugation for 30 min. Cell extracts (approximately 10 μg) were incubated with 2 μg of poly(dI-dC) for 30 minutes, followed by a 30 minutes incubation with 1ng of poly. nucleotide kinase-^32P labeled double stranded DNA oligonucleotide representing the IRF-1 STAT DNA binding sequence (Santa Cruz Biotechnology, Santa Cruz, Calif.). Samples were resolved by non-denaturing PAGE and visualized by autoradiography.
# RBL-2H3 cells = experiment: Calcium mobilization assay (Fluo-3); assay type: cell-based, rat
# Experimental: IgE sensitized RBL-2H3 cells were loaded with 1 μM Fluo-3 for 1 hour as described in the Examples below. The cells were then challenged with DNP-BSA or ionomycin and change in fluorescence was recorded. To study the effect of WHI-P131 on intracellular calcium mobilization, IgE-sensitized and Fluo-3 loaded RBL-2H3 cells were incubated with 3 μM, 12 μM or 30 μM WHI-P131 for 5 minutes prior to challenge with DNP-BSA or ionomycin.
# Calcium Measurement: Calcium mobilization assay was performed as described earlier (Zhu et. al., 1998, Clin. Cancer Res., 4:2967-2976). RBL-2H3 cells were loaded with Fluo-3 and stimulated with DNP-BSA in presence and absence of WJI-P131 as described above. Calcium response was measured by an calcium imaging device (Universal Imaging Co., West Chester, Pa.) mounted onto a inverted microscope. The exitation wavelength was 485 nm and the emission wavelength for detection was 535 nm. The fluorescent image of an individual cell was acquired by a CCD72 video camera (Dage-MTI Inc., Michigan City, Ill.) at the speed of 1 frame/s and digitized by computer.
# JAK3 = JAK3 activation in RBL-2H3 mast cells after IgE receptor crosslinking; details: 30 μM
# Experimental: Cells were lysed at the indicated time points, and SYK immune complexes were subjected to kinase assays in the presence of cold ATP followed by APT immunoblotting (upper panels in 8C & 8D) as well as to SYK Western blot analysis (lower panels in 8C & 8D).
# Immune-Complex Kinase Assays and Western Blot Analyses of Mast Cell Lysates. […] Cells were harvested, lysed (10 mM Tris pH 7.6, 100 mM NaCl, 1% Nonidet P-40, 10% glycerol, 50 mM NaF, 100 mM Na3VO4, 50 mg/ml phenylmethylsulfonyl fluoride, 10 mg/ml aprotonin, 10 mg/ml leupeptin), and the kinases were immunoprecipitated from the lysates, as reported (Uckun et. al., 1995, Science, 267:886-891; Uckun et. al., 1996, Science, 273:1096-1100). […] Immunoprecipitations, and immunoblotting using the ECL chemiluminescence detection system (Amersham Life Sciences) were conducted as described previously (Uckun et. al., 1996, Science, 273:1096-1100).
# T1 sequence (P23458 whole entry): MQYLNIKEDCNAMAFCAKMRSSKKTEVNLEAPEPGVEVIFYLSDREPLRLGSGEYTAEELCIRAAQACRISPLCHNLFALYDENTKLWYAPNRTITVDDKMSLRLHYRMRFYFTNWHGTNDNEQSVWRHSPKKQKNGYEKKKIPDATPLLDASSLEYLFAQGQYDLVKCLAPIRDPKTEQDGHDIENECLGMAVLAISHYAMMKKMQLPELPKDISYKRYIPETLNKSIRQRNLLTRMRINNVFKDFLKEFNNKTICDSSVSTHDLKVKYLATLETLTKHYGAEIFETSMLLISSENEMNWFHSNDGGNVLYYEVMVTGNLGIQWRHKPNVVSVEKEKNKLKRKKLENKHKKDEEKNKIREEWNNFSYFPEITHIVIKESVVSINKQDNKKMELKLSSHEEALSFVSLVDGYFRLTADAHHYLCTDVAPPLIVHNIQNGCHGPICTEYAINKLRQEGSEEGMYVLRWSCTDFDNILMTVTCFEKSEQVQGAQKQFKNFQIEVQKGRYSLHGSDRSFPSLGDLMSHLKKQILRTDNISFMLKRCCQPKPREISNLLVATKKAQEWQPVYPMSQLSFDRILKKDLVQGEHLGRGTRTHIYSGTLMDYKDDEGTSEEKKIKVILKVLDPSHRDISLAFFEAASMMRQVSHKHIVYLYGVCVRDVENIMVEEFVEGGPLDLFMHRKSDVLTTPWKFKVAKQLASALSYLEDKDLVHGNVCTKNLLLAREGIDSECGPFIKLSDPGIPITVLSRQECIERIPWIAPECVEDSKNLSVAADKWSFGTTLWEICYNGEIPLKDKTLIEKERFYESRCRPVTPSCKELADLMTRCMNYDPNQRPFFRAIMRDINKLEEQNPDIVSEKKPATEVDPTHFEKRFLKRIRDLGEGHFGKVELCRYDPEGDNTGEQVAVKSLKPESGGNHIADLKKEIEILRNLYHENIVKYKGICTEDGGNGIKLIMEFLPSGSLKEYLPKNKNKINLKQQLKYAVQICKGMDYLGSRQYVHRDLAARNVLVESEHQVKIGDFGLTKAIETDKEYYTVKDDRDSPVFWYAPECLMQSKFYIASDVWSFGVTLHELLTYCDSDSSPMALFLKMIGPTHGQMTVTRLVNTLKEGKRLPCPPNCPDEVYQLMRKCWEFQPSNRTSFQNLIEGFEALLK
smiles,measurement,setting,value
"COc1cc2ncnc(Nc3ccc(O)cc3)c2cc1OC [WHI-P131, 4-(4′-Hydroxylphenyl)-amino-6,7-dimethoxyquinazoline]",inhibitory activity against recombinant JAK1,recombinant JAK1,did not exhibit any detectable inhibitory activity
same,toxicity,"BALB/c mice; i.p. single bolus 0.5 mg/kg to 250 mg/kg, 30 day observation",not toxic
same,maximum tolerated dose (MTD),"BALB/c mice; i.p. single bolus, mice",> 250 mg/kg
same,histopathologic lesions in organs,BALB/c mice; mice killed at 30 days,No histopathologic lesions
same,"hematologic side effects (neutropenia, lymphopenia, anemia)","BALB/c mice; tested dose levels, mice",no hematologic side effects
same,LTC4 release,RBL-2H3 mast cells,near to complete inhibition
same,TNFα release,RBL-2H3 mast cells,near to complete inhibition
same,β-hexosaminidase release (degranulation),RBL-2H3 mast cells,near to complete inhibition
same,JAK1/JAK2-dependent STAT activation after stimulation with IL-3,[1],did not affect
same,ionomycin induced nonspecific calcium responses,RBL-2H3 cells,not affected
same,calcium response to DNP-BSA,"RBL-2H3 cells; 30 μM, IgE-sensitized, Fluo-3 loaded",abrogated
same,JAK3 activation after IgE receptor crosslinking,JAK3,abrogated
